The source made the active and inactive calls. No cut-off for these calls is given here.
Columns and labels:
RAW264.7 [1] = assay: Induction of apoptosis in mouse RAW264.7 cells assessed as late apoptotic cells at 20 uM after 24 hrs by annexin-V-FITC/propidium iodide staining based flow cytometry (reference value: 5.64 %); format: cell-based; conditions: raw264.7, 24 h
[2] = Induction of apoptosis in mouse NIH/3T3 cells assessed as viable cells at 20 uM after 24 hrs by annexin-V-FITC/propidium iodide staining based flow cytometry (reference value: 99.06 %); format: cell-based, NIH3T3; conditions: read-out: Activity
[3] = Induction of apoptosis in mouse NIH/3T3 cells assessed as early apoptotic cells at 20 uM after 24 hrs by annexin-V-FITC/propidium iodide staining based flow cytometry (reference value: 0.43 %); format: cell-based; conditions: nih3t3, 24 h
[4] = Induction of apoptosis in mouse NIH/3T3 cells assessed as necrotic cells at 20 uM after 24 hrs by annexin-V-FITC/propidium iodide staining based flow cytometry (reference value: 0.24 %); format: cell-based; conditions: nih3t3, 24 h
B16-F10 [5] = assay: Induction of apoptosis in mouse B16F10 cells assessed as increase in p53 expression at 20 uM after 36 hrs by […]; format: functional, cell-based
[6] = Cell cycle arrest in mouse B16F10 cells assessed as accumulation at subG0/G1 phase at 20 uM after 24 hrs by propidium iodide staining based flow cytometry (reference value: 40.7 %); format: functional; conditions: B16-F10
[7] = Cell cycle arrest in mouse B16F10 cells assessed as accumulation at G1 phase at 20 uM after 24 hrs by propidium iodide staining based flow cytometry (reference value: 38.8 %); format: functional; conditions: B16-F10
[8] = Cell cycle arrest in mouse B16F10 cells assessed as increase in cyclin B1 level at 20 uM by flow cytometric analysis; format: functional, cell-based; conditions: B16-F10
B16-F10 [9] = assay: Antitumor activity against mouse B16F10 cells xenografted in C57BL/J mouse assessed as inhibition of tumor growth at 10 mg/kg, ip; format: functional, organism-based
Mus musculus = assay: Toxicity in C57BL/J mouse xenografted with mouse B16F10 cells assessed as animal survival at 10 mg/kg, ip measured upto 45 days post tumor inoculation; format: organism-based, B16-F10; conditions: in vivo, 1080 h
B16-F10 [10] = assay: Antitumor activity in mouse B16F10 cells xenografted in C57BL/J mouse assessed as increase of apoptotic protein Bax level in tumor lysates at 10 mg/kg, ip by western blot analysis; format: functional, organism-based; conditions: Neoplasm, Lysate
B16-F10 [11] = assay: Antitumor activity in mouse B16F10 cells xenografted in C57BL/J mouse assessed as increase of apoptotic protein cytochrome C level in tumor lysates at 10 mg/kg, ip by western blot analysis; format: functional, organism-based; conditions: Neoplasm, Lysate
Gallus gallus [12] = species on record: Gallus gallus; assay: Antiangiogenic activity in chicken embryo assessed as inhibition of neovascularization at 40 uM after 4 hrs by microscopic analysis; format: functional, tissue-based
Gallus gallus [13] = species on record: Gallus gallus; assay: Antiangiogenic activity in chicken embryo assessed as complete degradation of existing blood vessels at 80 uM after 4 hrs by microscopic analysis; format: functional, tissue-based; conditions: Blood vessel
B16-F10 [14] = assay: Antitumor activity in mouse B16F10 cells xenografted in C57BL/J mouse assessed as decrease in VEGFR2 expression in tumor at 10 mg/kg, ip by immunohistochemical analysis; format: functional, organism-based
B16-F10 [15] = assay: Inhibition of cell migration in mouse B16F10 cells at 20 uM after 36 hrs by wound healing assay; format: functional, cell-based
B16-F10 [16] = assay: Induction of apoptosis in mouse B16F10 cells assessed as increase in cleaved caspase 3 level at 10 uM after 36 hrs by western blot analysis; format: functional, cell-based
B16-F10 [17] = assay: Effect on Bcl-2 expression in mouse B16F10 cells at 10 and 20 uM after 36 hrs by western blot analysis; format: functional, cell-based
B16-F10 [18] = assay: Induction of apoptosis in mouse B16F10 cells assessed as increase in ratio of Bax/Bcl2 level at 20 uM after 36 hrs by western blot analysis (reference value: 0.2); format: functional
B16-F10 [19] = assay: Induction of apoptosis in mouse B16F10 cells assessed as increase in ratio of Bax/Bcl2 level at 10 uM after 36 hrs by western blot analysis (reference value: 0.2); format: functional
B16-F10 [20] = assay: Antitumor activity in mouse B16F10 cells xenografted in C57BL/J mouse assessed as increase of apoptotic protein cleaved caspase 9 level in tumor lysates at 10 mg/kg, ip by western blot analysis; format: functional, organism-based; conditions: Neoplasm, Lysate
B16-F10 [21] = assay: Antitumor activity in mouse B16F10 cells xenografted in C57BL/J mouse assessed as increase of apoptotic protein cleaved caspase 7 level in tumor lysates at 10 mg/kg, ip by western blot analysis; format: functional, organism-based; conditions: Neoplasm, Lysate
B16-F10 [22] = assay: Antitumor activity in mouse B16F10 cells xenografted in C57BL/J mouse assessed as increase of apoptotic protein p53 level in tumor lysates at 10 mg/kg, ip by western blot analysis; format: functional, organism-based; conditions: Neoplasm, Lysate
[23] = Antitumor activity in mouse B16F10 cells xenografted in C57BL/J mouse assessed as increase in ratio of Bax/Bcl2 in tumor lysates at 10 mg/kg, ip by western blot analysis (reference value: 0.4); format: functional, Neoplasm, B16-F10
[24] = Cytotoxicity against mouse B16F10 cells after 72 hrs by MTT assay; format: functional, cell-based; conditions: B16-F10, 72 h
A549 = assay: Cytotoxicity against human A549 cells after 72 hrs by MTT assay; format: functional, cell-based; conditions: A549, 72 h
[25] = Cytotoxicity against human SKOV3 cells after 72 hrs by MTT assay; format: functional, cell-based; conditions: SK-OV-3, 72 h
HeLa = assay: Cytotoxicity against human HeLa cells after 72 hrs by MTT assay; format: functional, cell-based
RAW264.7 [26] = assay: Cytotoxicity against mouse RAW264.7 cells after 72 hrs by MTT assay; format: cell-based; conditions: RAW264.7, 72 h
[27] = Cytotoxicity against mouse B16F10 cells at 10 and 20 uM after 72 hrs by MTT assay; format: functional, B16-F10
B16-F10 [28] = assay: Induction of apoptosis in mouse B16F10 cells assessed as viable cells at 20 uM after 24 hrs by annexin-V-FITC/propidium iodide staining based flow cytometry (reference value: 93.66 %); format: functional; conditions: B16-F10, 24 h, read-out: Activity
MDA-MB-231 [29] = assay: Induction of apoptosis in human MDA-MB-231 cells assessed as viable cells at 20 uM after 24 hrs by annexin-V-FITC/propidium iodide staining based flow cytometry (reference value: 90.77 %); format: functional; conditions: MDA-MB-231, 24 h, read-out: Activity
MDA-MB-231 [30] = assay: Induction of apoptosis in human MDA-MB-231 cells assessed as early apoptotic cells at 20 uM after 24 hrs by annexin-V-FITC/propidium iodide staining based flow cytometry (reference value: 0.58 %); format: functional
MDA-MB-231 [31] = assay: Induction of apoptosis in human MDA-MB-231 cells assessed as late apoptotic cells at 20 uM after 24 hrs by annexin-V-FITC/propidium iodide staining based flow cytometry (reference value: 3.25 %); format: functional
MDA-MB-231 [32] = assay: Induction of apoptosis in human MDA-MB-231 cells assessed as necrotic cells at 20 uM after 24 hrs by annexin-V-FITC/propidium iodide staining based flow cytometry (reference value: 5.40 %); format: functional
[33] = Induction of apoptosis in mouse RAW264.7 cells assessed as viable cells at 20 uM after 24 hrs by annexin-V-FITC/propidium iodide staining based flow cytometry (reference value: 89.11 %); format: cell-based; conditions: read-out: Activity

CCCCCCCCCCCCCCCC[N+](C)(CCCCCCCCCCCCCCCC)CCNC(=O)[C@@]1(O)CC[C@H]2[C@@H]3CCC4=CC(=O)CC[C@]4(C)[C@H]3[C@@H](O)C[C@@]21C.[Cl-]
Activity (RAW264.7 [1]): 2.83%
viability at 24 h, 20 µM [2]: 90.4%
Activity [3]: 2.08%
Activity [4]: 0.51%
Activity (B16-F10 [5]): Active
Activity [6]: 15.1%
Activity [7]: 33.8%
Activity [8]: Active
inhibition (B16-F10 [9]): Active
Activity (Mus musculus): Non-toxic
Activity (B16-F10 [10]): Active
Activity (B16-F10 [11]): Active
inhibition (Gallus gallus [12]): Active
Activity (Gallus gallus [13]): Active
inhibition (B16-F10 [14]): Active
inhibition (B16-F10 [15]): Active
Activity (B16-F10 [16]): Active
Activity (B16-F10 [17]): inactive
Ratio (B16-F10 [18]): 0.6
Ratio (B16-F10 [19]): 0.4
Activity (B16-F10 [20]): Active
Activity (B16-F10 [21]): Active
Activity (B16-F10 [22]): Active
Ratio [23]: 2.1
IC50 [24]: 6.2 µM
IC50 (A549): 2.5 µM
IC50 [25]: 3.5 µM
IC50 (HeLa): 5.2 µM
IC50 (RAW264.7 [26]): 18.4 µM
Activity [27]: >90%
viability at 20 µM (B16-F10 [28]): 57.4%
viability at 20 µM (MDA-MB-231 [29]): 50.7%
Activity (MDA-MB-231 [30]): 4.62%
Activity (MDA-MB-231 [31]): 40.23%
Activity (MDA-MB-231 [32]): 4.45%
viability at 24 h, 20 µM [33]: 94.2%

Source: ChEMBL document CHEMBL3751695, “Cationic lipid-conjugated hydrocortisone as selective antitumor agent” (Eur J Med Chem, 2016)
